Test results published in paper PMC6661809, “Lead optimization for promising monoamine oxidase inhibitor from eugenol for the treatment of neurological disorder: synthesis and in silico based study” (BMC Chemistry, 2019).

System: not listed separately
Experiment: Ferric reducing antioxidant power (FRAP) assay;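 further: Ferrous-TPTZ reduction read as absorbance at 593 nm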
Settings: Table 9, mean ± SEM, n = 3
Procedure: The capacity of antioxidants to decrease ferric iron is measured by this method. The reaction of […] (TPTZ) and complex ferric iron yields ferrous form at low pH. […] This method was adopted from the reports of Benzie et al..

Structure (SMILES)	FRAP IC50
C=CCc1ccc(OC(=O)c2ccccc2S)c(OC)c1 [Compound 13d, 4-allyl-2-methoxyphenyl 2-mercaptobenzoate]	12.45 ± 0.017 µg/mL
C=CCc1ccc(OCC(=O)NNC(=S)NC(=O)c2cc(O)c(O)c(O)c2)c(OC)c1 [Compound 5b]	5.112 ± 0.009 µg/mL
C=CCc1ccc(OC(=O)c2ccc(O)cc2)c(OC)c1 [Compound 13b, 4-allyl-2-methoxyphenyl 4-hydroxybenzoate]	10.77 ± 0.026 µg/mL
C=CCc1ccc(OCC(=O)NNC(=O)c2ccccc2O)c(OC)c1 [Compound 9a, N′-(2-(4-allyl-2-methoxyphenoxy)acetyl)-2-hydroxybenzohydrazide]	7.234 ± 0.001 µg/mL
C=CCc1ccc(OC(=O)/C=C\c2ccc(O)c(OC)c2)c(OC)c1 [Compound 16, (Z)-4-allyl-2-methoxyphenyl 3-(4-hydroxy-3-methoxyphenyl)acrylate]	16.88 ± 0.099 µg/mL
C=CCc1ccc(OC(=O)/C=C\c2ccccc2)c(OC)c1 [Compound 17, (Z)-4-allyl-2-methoxyphenyl 3-phenylacrylate]	15.91 ± 0.003 µg/mL

Biological target: T1, hMAO-A (Homo sapiens, UniProt P21397)
T1 construct: purchased Sigma-Aldrich; host or cells: insect cells (BTI-TN-5B14) infected with recombinant baculovirus
T1 sequence (P21397 1-527): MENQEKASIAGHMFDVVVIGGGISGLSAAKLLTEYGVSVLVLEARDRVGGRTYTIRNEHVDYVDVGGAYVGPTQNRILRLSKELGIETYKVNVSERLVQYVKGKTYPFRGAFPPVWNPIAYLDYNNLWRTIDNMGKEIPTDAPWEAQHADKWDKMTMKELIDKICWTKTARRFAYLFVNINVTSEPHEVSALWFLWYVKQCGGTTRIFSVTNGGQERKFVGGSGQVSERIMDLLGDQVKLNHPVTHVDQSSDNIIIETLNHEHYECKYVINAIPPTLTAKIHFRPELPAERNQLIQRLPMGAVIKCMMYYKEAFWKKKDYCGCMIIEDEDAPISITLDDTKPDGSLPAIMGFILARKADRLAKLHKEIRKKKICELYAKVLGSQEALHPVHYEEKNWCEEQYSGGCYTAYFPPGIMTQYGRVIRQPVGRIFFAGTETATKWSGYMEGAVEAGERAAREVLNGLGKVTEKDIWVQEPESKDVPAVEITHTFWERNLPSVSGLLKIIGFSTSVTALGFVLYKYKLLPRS
Experiment: Recombinant human MAO-A inhibition screening (Amplex Red, p-tyramine)
Type: biochemical
Settings: IC50 (MAO-A)/IC50 (MAO-B)
Description: (§1) To evaluate IC50 values for the inhibition of human MAO-A and MAO-B by newly synthesized compounds the commercially available recombinant human enzymes expressed in insect cells were used (Sigma-Aldrich). The MAO inhibition assay was based on the method described by Anderson et al., 1993 and Chimenti et al. with some modifications. The Amplex Red MAO Kit tyramine (Sigma-Aldrich) affords a suitable fluorimetric method to evaluate MAO enzyme action of synthetic and natural compounds. In the assay, MAO reacts with p-tyramine, a common substrate for both MAO isoforms, ensuing in the production of H2O2, which is identified by a fluorimetric method (λex = 530/λem = 585 nm). Each test well contained 0.1 mL of sodium phosphate buffer (0.05 M, pH 7.4), a range of concentrations of the eugenol based derivatives or reference compounds along with recombinant hMAO-A or hMAO-B in appropriate quantity. After the preparation of this mixture the wells were subjected to incubation for 15 min at 37 °C, placed in the dark fluorimeter chamber. Once this incubation period over, the process was rendered by mixing 200 µM Amplex Red reagent (Sigma-Aldrich), 1 U/mL horseradish peroxidase (Sigma-Aldrich) and p-tyramine (Sigma-Aldrich). Subsequently, the formation of hydrogen peroxide exerted by MAO isoforms was quantified by using Amplex-Red reagent, a non-fluorescent probe that reacts with H2O2 in the existence of horse radish peroxidase to generate the fluorescent component resorufin. Moreover, the control analysis was calculated in the absence of compound and reference inhibitors. The probability of compounds to change the fluorescence produced in the reaction mix due to non-enzymatic inhibition was assessed by mixing titled compounds to solutions of single Amplex Red reagent in a sodium phosphate buffer. Data were processed in Microsoft Excel, to calculate IC50 values.

Structure (SMILES)	Selectivity index
C=CCc1ccc(OC(=O)c2ccccc2S)c(OC)c1 [Compound 13d, 4-allyl-2-methoxyphenyl 2-mercaptobenzoate]	1.49
C=CCc1ccc(OCC(=O)NNC(=S)NC(=O)c2cc(O)c(O)c(O)c2)c(OC)c1 [Compound 5b]	0.19
C=CCc1ccc(OC(=O)c2ccc(O)cc2)c(OC)c1 [Compound 13b, 4-allyl-2-methoxyphenyl 4-hydroxybenzoate]	5.72
C=CCc1ccc(OCC(=O)NNC(=O)c2ccccc2O)c(OC)c1 [Compound 9a, N′-(2-(4-allyl-2-methoxyphenoxy)acetyl)-2-hydroxybenzohydrazide]	0.22
C=CCc1ccc(OC(=O)/C=C\c2ccc(O)c(OC)c2)c(OC)c1 [Compound 16, (Z)-4-allyl-2-methoxyphenyl 3-(4-hydroxy-3-methoxyphenyl)acrylate]	0.14
C=CCc1ccc(OC(=O)/C=C\c2ccccc2)c(OC)c1 [Compound 17, (Z)-4-allyl-2-methoxyphenyl 3-phenylacrylate]	0.40

Same assay, conditions: recombinant hMAO-A, p-tyramine substrate, mean SEM

Structure (SMILES)	IC50
C=CCc1ccc(OC(=O)c2ccccc2S)c(OC)c1 [Compound 13d, 4-allyl-2-methoxyphenyl 2-mercaptobenzoate]	20.89 ± 0.023 µM
C=CCc1ccc(OCC(=O)NNC(=S)NC(=O)c2cc(O)c(O)c(O)c2)c(OC)c1 [Compound 5b]	5.989 ± 0.007 µM
C=CCc1ccc(OC(=O)c2ccc(O)cc2)c(OC)c1 [Compound 13b, 4-allyl-2-methoxyphenyl 4-hydroxybenzoate]	52.55 ± 0.038 µM
C=CCc1ccc(OCC(=O)NNC(=O)c2ccccc2O)c(OC)c1 [Compound 9a, N′-(2-(4-allyl-2-methoxyphenoxy)acetyl)-2-hydroxybenzohydrazide]	10.84 ± 0.025 µM
C=CCc1ccc(OC(=O)/C=C\c2ccc(O)c(OC)c2)c(OC)c1 [Compound 16, (Z)-4-allyl-2-methoxyphenyl 3-(4-hydroxy-3-methoxyphenyl)acrylate]	7.348 ± 0.027 µM
C=CCc1ccc(OC(=O)/C=C\c2ccccc2)c(OC)c1 [Compound 17, (Z)-4-allyl-2-methoxyphenyl 3-phenylacrylate]	13.92 ± 0.051 µM

System: not given
Experiment: not given
Settings: not given

Structure (SMILES)	melting point
C=CCc1ccc(OC(=O)c2ccccc2S)c(OC)c1 [Compound 13d, 4-allyl-2-methoxyphenyl 2-mercaptobenzoate]	182 to 184 °C
C=CCc1ccc(OC(=O)c2ccc(O)cc2)c(OC)c1 [Compound 13b, 4-allyl-2-methoxyphenyl 4-hydroxybenzoate]	178 to 179 °C
C=CCc1ccc(OCC(=O)NNC(=O)c2ccccc2O)c(OC)c1 [Compound 9a, N′-(2-(4-allyl-2-methoxyphenoxy)acetyl)-2-hydroxybenzohydrazide]	230 to 231 °C
C=CCc1ccc(OC(=O)/C=C\c2ccc(O)c(OC)c2)c(OC)c1 [Compound 16, (Z)-4-allyl-2-methoxyphenyl 3-(4-hydroxy-3-methoxyphenyl)acrylate]	120 to 122 °C

System: not listed separately
Experiment: Nitric oxide scavenging activity
Settings: Table 8, mean ± SEM, n = 3
Description: The generation of nitric oxide (NO·) on biological tissues is mediated by particular nitric oxide synthases enzyme that control the catabolism of the arginine to citrulline via creation of NO through a five electron oxidative reaction. At the physiological pH (7.2) in aqueous solution sodium nitroprusside decompose to produce NO·. Finally, NO· reacts with oxygen at underaerobic conditions and produces stable products (nitrate and nitrite), this amount can be determined by means of Griess reagent. The procedure for the nitric oxide scavenging activity was adopted from reports of Alam et al..

Structure (SMILES)	Nitric oxide scavenging IC50
C=CCc1ccc(OC(=O)c2ccccc2S)c(OC)c1 [Compound 13d, 4-allyl-2-methoxyphenyl 2-mercaptobenzoate]	11.23 ± 0.032 µg/mL
C=CCc1ccc(OCC(=O)NNC(=S)NC(=O)c2cc(O)c(O)c(O)c2)c(OC)c1 [Compound 5b]	6.456 ± 0.023 µg/mL
C=CCc1ccc(OC(=O)c2ccc(O)cc2)c(OC)c1 [Compound 13b, 4-allyl-2-methoxyphenyl 4-hydroxybenzoate]	11.74 ± 0.523 µg/mL
C=CCc1ccc(OCC(=O)NNC(=O)c2ccccc2O)c(OC)c1 [Compound 9a, N′-(2-(4-allyl-2-methoxyphenoxy)acetyl)-2-hydroxybenzohydrazide]	9.007 ± 0.014 µg/mL
C=CCc1ccc(OC(=O)/C=C\c2ccc(O)c(OC)c2)c(OC)c1 [Compound 16, (Z)-4-allyl-2-methoxyphenyl 3-(4-hydroxy-3-methoxyphenyl)acrylate]	18.63 ± 0.654 µg/mL
C=CCc1ccc(OC(=O)/C=C\c2ccccc2)c(OC)c1 [Compound 17, (Z)-4-allyl-2-methoxyphenyl 3-phenylacrylate]	25.61 ± 0.076 µg/mL

System: not listed separately
Experiment: DPPH scavenging activity
Settings: Table 6, mean ± SEM, n = 3
Procedure: Solutions of synthesized compounds were set in ethanol/water (1:1) having 10 mM to 100 mM at a period of 10 mM. The 0.01% DPPH· stock solution was prepared in ethanol/water (1:1). Samples were prepared as 5 mL DPPH· solution was mixed with 5 mL L-ascorbic acid solution then shaken vigorously and kept in the dark. Corresponding blank sample were prepared and L-ascorbic acid was used as reference standard. […] The actual decrease in absorption induced by the test was compared with the positive controls. The IC50 values were calculated use the dose inhibition curve in linear range by plotting the extract concentration versus the corresponding scavenging effect through following equation [(ADR − APR)/AO] × 100. Where ADR is the absorbance prior to reaction and APR is the absorbance after reaction with DPPH·.

Structure (SMILES)	DPPH scavenging IC50
C=CCc1ccc(OC(=O)c2ccccc2S)c(OC)c1 [Compound 13d, 4-allyl-2-methoxyphenyl 2-mercaptobenzoate]	14.88 ± 0.018 µg/mL
C=CCc1ccc(OCC(=O)NNC(=S)NC(=O)c2cc(O)c(O)c(O)c2)c(OC)c1 [Compound 5b]	8.304 ± 0.073 µg/mL
C=CCc1ccc(OC(=O)c2ccc(O)cc2)c(OC)c1 [Compound 13b, 4-allyl-2-methoxyphenyl 4-hydroxybenzoate]	12.47 ± 0.014 µg/mL
C=CCc1ccc(OCC(=O)NNC(=O)c2ccccc2O)c(OC)c1 [Compound 9a, N′-(2-(4-allyl-2-methoxyphenoxy)acetyl)-2-hydroxybenzohydrazide]	9.514 ± 0.017 µg/mL
C=CCc1ccc(OC(=O)/C=C\c2ccc(O)c(OC)c2)c(OC)c1 [Compound 16, (Z)-4-allyl-2-methoxyphenyl 3-(4-hydroxy-3-methoxyphenyl)acrylate]	27.70 ± 0.023 µg/mL
C=CCc1ccc(OC(=O)/C=C\c2ccccc2)c(OC)c1 [Compound 17, (Z)-4-allyl-2-methoxyphenyl 3-phenylacrylate]	31.30 ± 0.014 µg/mL

System: not listed separately
Experiment: Hydrogen peroxide scavenging (H2O2) assay
Settings: Table 7, mean ± SEM, n = 3
Procedure: Hydrogen peroxide generally turns into water and oxygen and produces highly toxic hydroxyl radical that renders the damage to DNA and peroxidation of lipid. H2O2 scavenging ability of eugenol based derivatives was evaluated by method described by Nakano and colleagues with some alteration. The hydrogen peroxide solution (40 mM) was prepared in phosphate buffer (40 mM pH 7.4) and addition of several ranges of synthesized derivatives (05–80 μg/mL) was done into H2O2 solution (2 mL). The determination of H2O2 concentration was done by UV/Vis Epoch ELISA reader at 230 nm upon incubation of 10 min. Solution of phosphate buffer without H2O2 was noted as blank reading. The hydrogen peroxide percentage inhibition was estimated through the formula [(AH − AD)/AO] × 100, where AH is the absorbance of the control and AD is the absorbance of compounds/reference taken as 05–80 μg/mL L-ascorbic acid.

Structure (SMILES)	H2O2 scavenging IC50
C=CCc1ccc(OC(=O)c2ccccc2S)c(OC)c1 [Compound 13d, 4-allyl-2-methoxyphenyl 2-mercaptobenzoate]	14.4 ± 0.143 µg/mL
C=CCc1ccc(OCC(=O)NNC(=S)NC(=O)c2cc(O)c(O)c(O)c2)c(OC)c1 [Compound 5b]	8.904 ± 0.034 µg/mL
C=CCc1ccc(OC(=O)c2ccc(O)cc2)c(OC)c1 [Compound 13b, 4-allyl-2-methoxyphenyl 4-hydroxybenzoate]	12.5 ± 0.862 µg/mL
C=CCc1ccc(OCC(=O)NNC(=O)c2ccccc2O)c(OC)c1 [Compound 9a, N′-(2-(4-allyl-2-methoxyphenoxy)acetyl)-2-hydroxybenzohydrazide]	9.547 ± 0.051 µg/mL
C=CCc1ccc(OC(=O)/C=C\c2ccc(O)c(OC)c2)c(OC)c1 [Compound 16, (Z)-4-allyl-2-methoxyphenyl 3-(4-hydroxy-3-methoxyphenyl)acrylate]	20.6 ± 0.856 µg/mL
C=CCc1ccc(OC(=O)/C=C\c2ccccc2)c(OC)c1 [Compound 17, (Z)-4-allyl-2-methoxyphenyl 3-phenylacrylate]	30.4 ± 0.064 µg/mL

Biological target: T2, hMAO-B (Homo sapiens, UniProt P27338)
T2 construct: purchased Sigma-Aldrich; host or cells: insect cells (BTI-TN-5B14) infected with recombinant baculovirus
T2 sequence (P27338 1-520): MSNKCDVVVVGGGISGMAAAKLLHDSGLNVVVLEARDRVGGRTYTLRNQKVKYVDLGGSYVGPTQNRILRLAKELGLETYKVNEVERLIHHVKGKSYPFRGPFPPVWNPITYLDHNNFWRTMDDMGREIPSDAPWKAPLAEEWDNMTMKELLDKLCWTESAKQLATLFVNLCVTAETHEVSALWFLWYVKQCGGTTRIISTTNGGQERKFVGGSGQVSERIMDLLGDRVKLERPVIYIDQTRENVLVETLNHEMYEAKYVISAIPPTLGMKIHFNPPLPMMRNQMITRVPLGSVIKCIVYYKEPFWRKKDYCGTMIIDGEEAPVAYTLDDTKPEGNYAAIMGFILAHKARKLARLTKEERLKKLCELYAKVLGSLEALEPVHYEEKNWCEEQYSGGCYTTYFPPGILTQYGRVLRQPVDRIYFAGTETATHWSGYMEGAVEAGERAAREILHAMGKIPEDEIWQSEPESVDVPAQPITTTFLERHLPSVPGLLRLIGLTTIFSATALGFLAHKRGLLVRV
Experiment: Recombinant human MAO-B inhibition screening (Amplex Red, p-tyramine)
Type: biochemical
Settings: p-tyramine substrate, mean SEM
Description: as §1

Structure (SMILES)	IC50
C=CCc1ccc(OC(=O)c2ccccc2S)c(OC)c1 [Compound 13d, 4-allyl-2-methoxyphenyl 2-mercaptobenzoate]	13.95 ± 0.005 µM
C=CCc1ccc(OCC(=O)NNC(=S)NC(=O)c2cc(O)c(O)c(O)c2)c(OC)c1 [Compound 5b]	31.19 ± 0.016 µM
C=CCc1ccc(OC(=O)c2ccc(O)cc2)c(OC)c1 [Compound 13b, 4-allyl-2-methoxyphenyl 4-hydroxybenzoate]	9.183 ± 0.034 µM
C=CCc1ccc(OCC(=O)NNC(=O)c2ccccc2O)c(OC)c1 [Compound 9a, N′-(2-(4-allyl-2-methoxyphenoxy)acetyl)-2-hydroxybenzohydrazide]	47.7 ± 0.073 µM
C=CCc1ccc(OC(=O)/C=C\c2ccc(O)c(OC)c2)c(OC)c1 [Compound 16, (Z)-4-allyl-2-methoxyphenyl 3-(4-hydroxy-3-methoxyphenyl)acrylate]	49.15 ± 0.011 µM
C=CCc1ccc(OC(=O)/C=C\c2ccccc2)c(OC)c1 [Compound 17, (Z)-4-allyl-2-methoxyphenyl 3-phenylacrylate]	34.2 ± 0.037 µM
